These results are taken from publication PMC9168369 (Frontiers in Pharmacology, 2022).

Series [1] relates to IDO1. The note with it: read-out: average IC50, cellular assay; ref Yue et al., 2017; Komiya and Huang, 2018; cited from earlier work.
The test system of series [2] is SHEE cells (human immortalized esophageal epithelial cell line). The experiment in a line: Toxicity to SHEE, MTT assay. The series is classed as cell-based. Conditions: 48 h, read-out: IC50 SHEE. The method, then:
Toxicity to SHEE was evaluated by using the MTT assay. The SHEE cells were seeded in 96-well plates with densities of 2,200–2,500 cells/well in 100 μl. One day after seeding, the concentration of the test compounds being between 0 and 50 μM, 0.1% DMSO were added to the cells as control. Approximately 2,200–2,500 transfected cells in 100 μl were incubated in quintuplicate in 96-well plates. After 48 h, MTT was added and incubated in the plate for 1–4 h in the incubator. The absorbance at 490 nm was measured using a microplate reader (Thermo).

In series [3] the test system is Hela cells. The experiment in a line: Cell anti-proliferative activity, CCK8 assay. The series is classed as cell-based. The note with it: Homo sapiens, CCK8, 48 h, 0.25 to 16.0 μM. The method, then: Cell anti-proliferative activity to Hela was evaluated by the CCK8 assay. The Hela cells were seeded at a density of 2,000 cells per well into a 96-well microplate in 100 μl of the growth medium. Cells were incubated at 37°C and 5% CO2 overnight. The next day, 100 μl per well of the diluted inhibitor in the growth medium was added with the final concentration from 0.25 to 16.0 μM. The cells were treated with DMSO as control. A series of dilutions were made in 0.1% DMSO in the assay medium so that the final concentration of DMSO was 0.1% in all of treatments. Cells were incubated at 37°C and 5% CO2 for 48 h. Then, 10 μl of CCK8 was added to each well. The plates were incubated at 37°C for 2 h, after that, the plates were recorded by measuring the absorbance at 450 nm with the reference wavelength of 630 nm using an EnVision Multilabel Reader (PerkinElmer). All assays were conducted with three parallel samples and three repetitions.

Details of series [4]: method as in Ma et al. (2019). Conditions: ref Ma et al. (2019); cited from earlier work.
The target in series [5] is T1, human IDO1 (Homo sapiens, UniProt P14902).
T1 construct: Hela cell was selected because of its expression in native human IDO1 induced with IFNγ; endogenous in cells; host or cells: Hela cells (ATCC), induced with human IFN-γ 100 ng/ml
Kind of series: Hela cell based IDO1 assay (kynurenine readout, IFN-γ induced). The note with it: Hela cells, human IFN-γ 100 ng/ml, 18 h. The protocol:
To perform the Hela cell based IDO1 assay, Hela cells were seeded at 50,000 cells per well into a 96-well microplate in 100 μl of DMEM complete growth medium overnight. The next day, 100 μl of the diluted inhibitor was added into each well in the growth medium, then human IFN-γ was added with a final concentration of 100 ng/ml. Cells were incubated for 18 h. […] The plate was incubated at 50°C for 30 min to hydrolyze N-formyl kynurenine produced by IDO to kynurenine. The plate was then centrifuged at 2,500 rpm for 10 min to remove sediments. 100 μl of supernatant per well was transferred to another 96-well plate and mixed with 100 μl of 2% (w/v) 4-(dimethylamino) benzaldehyde in acetic acid. The plate was incubated at room temperature for 10 min, the yellow color derived from kynurenine was recorded by measuring the absorbance at 480 nm using a microplate reader (PerkinElmer, United States).

Read-outs that look alike come from different tables or passages of the source.

For `NS(=O)(=O)NCCNc1nonc1C(=NO)Nc1ccc(F)c(Br)c1` [Epacadostat], in series [1], the IC50 was […].

T1 sequence (P14902 whole entry): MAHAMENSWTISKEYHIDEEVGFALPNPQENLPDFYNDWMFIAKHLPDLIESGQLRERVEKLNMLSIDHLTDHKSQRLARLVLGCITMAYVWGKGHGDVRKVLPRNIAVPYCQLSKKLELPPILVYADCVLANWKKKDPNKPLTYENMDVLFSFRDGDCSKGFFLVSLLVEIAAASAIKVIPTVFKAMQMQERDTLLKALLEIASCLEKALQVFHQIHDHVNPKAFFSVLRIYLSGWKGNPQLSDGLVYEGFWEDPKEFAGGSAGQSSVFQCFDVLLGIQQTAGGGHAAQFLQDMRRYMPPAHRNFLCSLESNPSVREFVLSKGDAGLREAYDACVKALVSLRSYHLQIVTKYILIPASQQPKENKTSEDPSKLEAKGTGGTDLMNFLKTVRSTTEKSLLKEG

As for `C#Cc1cccc(Nc2ncnc3cc(OCCOC)c(OCCOC)cc23)c1` [Erlotinib, reference compound], the IC50 in series [2] was 21 ± 2.11 µM; in series [3] it was above 16 µM.

For `O[C@H](C[C@H]1c2c(F)cccc2-c2cncn21)[C@H]1CC[C@H](O)CC1` [Navoximod], in series [4], the absorption result is “quickly absorbed” and the tolerability result is recorded as “well tolerated”.

On to `COCCOc1cc2ncnc(Nc3cccc(-c4cn(-c5ccccc5)nn4)c3)c2cc1OCCOC` [compound a, [6,7-Bis-(2-methoxy-ethoxy)-quinazolin-4-yl]-[3-(1-phenyl-1H-[1,2,3]triazol-4-yl)-phenyl]-amine], for which the IC50 in series [3] was above 16 µM.

`COCCOc1cc2ncnc(Nc3cccc(-c4cn(Cc5ccccc5)nn4)c3)c2cc1OCCOC` [compound b, N-(3-(1-Benzyl-1H-1,2,3-triazol-4-yl)phenyl)-6,7-bis(2-methoxyethoxy)quinazolin-4-amine] yielded a melting point of 89 to 92 °C. In series [2] (MTT, 0 to 50 μM), the half-inhibitory concentration (IC50) is above 50 µM. Moreover, in series [3], the IC50 is above 16 µM.

Compound `COCCOc1cc2ncnc(Nc3cccc(-c4cn(CCc5ccccc5)nn4)c3)c2cc1OCCOC` [compound c, [6,7-Bis-(2-methoxy-ethoxy)-quinazolin-4-yl]-[3-(1-phenethyl-1H-[1,2,3]triazol-4-yl)-phenyl]-amine] had a melting point of 109 to 112 °C. Besides, the IC50 in series [5] is 47.1 ± 33.2 µM. Also, the IC50 in series [3] is above 16 µM.

The compound `COCCOc1cc2ncnc(Nc3cccc(-c4cn(Cc5ccccc5I)nn4)c3)c2cc1OCCOC` [compound d, [6,7-Bis-(2-methoxy-ethoxy)-quinazolin-4-yl]-{3-[1-(2-iodo-benzyl)-1H-[1,2,3]triazol-4-yl]-phenyl}-amine] gave a melting point of 93 to 96 °C. For the same compound, in series [5], half-maximal inhibition (IC50) required 0.4 ± 0.14 µM.

For the compound `COCCOc1cc2ncnc(Nc3cccc(-c4cn(Cc5ccccc5Br)nn4)c3)c2cc1OCCOC` [compound e, [6,7-Bis-(2-methoxy-ethoxy)-quinazolin-4-yl]-{3-[1-(2-bromo-benzyl)-1H-[1,2,3]triazol-4-yl]-phenyl}-amine], the melting point fell in the range of 94 to 97 °C. This compound also showed an IC50 in series [5] of 0.32 ± 0.07 µM. In addition, the IC50 in series [3] was above 16 µM.
